Results: patent US20160113936A1, “METHODS FOR MODULATING MONOCYTE FUNCTION” (Georgia Regents Research Institute, Inc., priority 2014, published 2016)

Columns and labels:
[1] = tested on: non-tumor cells; settings: cited from earlier work
[2] = tested on: NCI 60-cell panel; settings: read-out: Growth Inhibition of 50% (GI50); cited from earlier work
[3] = tested on: Hsp90 derived from transformed cells overexpressing HER-2; settings: cited from earlier work
[4] = tested on: monocytic THP-1 cells; assay: HSP70 protein levels in monocytic THP-1 cells (autoradiograph, FIG. 1); assay type: cell-based; settings: β-actin as standard
From the text: FIG. 1 is an autoradiograph showing HSP70 levels in monocytic THP-1 cells treated with NVP-AUY922 or 17-DMAG. β-actin levels are shown as a standard.

[5] = target: human Hsp90α (Homo sapiens, UniProt P07900); settings: cited from earlier work
[6] = cited from earlier work
[7] = in vivo; cited from earlier work
[8] = tested on: monocytic THP-1 cells; assay: Pro-inflammatory cytokine protein expression (Table 1); assay type: cell-based; settings: for IL-6 Protein Expression: Control 7.40; for IL-10 Protein Expression: Control 9.89; for IL-1β Protein Expression: Control 15.24; for IL-8 Protein Expression: Control 110.44; for TNF-α Protein Expression: Control 1611.19
[9] = tested on: monocytic THP-1 cells; assay: Pro-inflammatory cytokine gene expression by qRT-PCR (Table 1); assay type: cell-based; settings: Control 1.0
Description: The major pro-inflammatory cytokines that are responsible for early inflammatory responses include IL1-α, IL1-β, IL-6, and TNF-α. […] Inflammatory cytokines and tissue factor gene expression were evaluated using quantitative real-time polymerase chain reaction (qRT-PCR). Amount of tissue factor was determined using a one stage clotting assay calibrated against a known amount of tissue factor (INNOVIN).

[10] = tested on: mice with SCD; assay: LPS challenge in Townes sickle cell (SS) and AA mice treated with AUY922; assay type: in vivo, mouse
Description: FIG. 4 is a schematic diagram of an experimental procedure for assaying HSP90 inhibitors for the treatment SCD.
FIG. 5A is a bar graph of HSP70/GAPDH (relative units) for mice treated with phosphate buffered saline (PBS) or AUY922 (25 mg/Kg B.W.) daily for four days. FIG. 5B is a bar graph of HSP70/GAPDH (relative units) for mice treated with 0.1 μg/g B.W. of LPS or 0.1 μg/g B.W. of LPS plus AUY922 (25 mg/Kg B.W.).
Cytokine (ng/ml) for AA or SS mice treated with control, AUY, LPS, or LPS+AUY is shown.
Mouse Phenotype: B6;129-Hba^tm1(HBA)Tow Hbb^tm2(HBG1,HBB*)Tow/Hbb^tm3(HBG1,HBB)Tow/J
Entire Mouse Globin Locus Removed and Replace by Human Hemoglobin S or A.
AA, SS, & SA mice are available.

[11] = preclinical data; cited from earlier work
[12] = tested on: Hsp70; settings: cited from earlier work

## C=CCNC1=C2C[C@@H](C)C[C@H](OC)[C@H](O)[C@@H](C)/C=C(\C)[C@H](OC(N)=O)[C@@H](OC)/C=C\C=C(/C)C(=O)NC(=CC1=O)C2=O [17-AAG, 17-allylamino-17-demethoxygeldanamycin]
[1]
  toxicity toward non-tumor cells: low toxicity
[2]
  GI50: 120 nM
[3]; Hsp90 from HER-2 overexpressing cells (BT474, N87, SKOV3, SKBR3) or BT474 breast carcinoma cells, read-out: 1050 values
  IC50: 5 to 6 nM
[3]; transformed cells overexpressing HER-2, comparator not printed (non-tumor cells are named just before)
  higher affinity for Hsp90 derived from transformed cells: more than 100 ×

## CO[C@H]1/C=C\C=C(/C)C(=O)NC2=CC(=O)C(NCCN(C)C)=C(C[C@@H](C)C[C@H](OC)[C@H](O)[C@@H](C)/C=C(\C)[C@@H]1OC(N)=O)C2=O [17-DMAG, 17-Dimethylaminoethylamino-17-demethoxygeldanamycin]
[4]
  HSP70 protein levels: increases HSP70 protein levels
[5]
  binding to ATPase site of human Hsp90α: high affinity
[2]
  GI50: 51 nM
[6]
  water solubility: water-soluble
[7]
  bioavailability: excellent bioavailability

## CCNC(=O)c1noc(-c2cc(C(C)C)c(O)cc2O)c1-c1ccc(CN2CCOCC2)cc1 [AUY922, 5-(2,4-dihydroxy-5-isopropylphenyl)-N-ethyl-4-(4-(morpholinomethyl)phenyl)isoxazole-3-carboxamide]
[4]
  HSP70 protein levels: increases HSP70 protein levels
[8]; AUY922 alone
  IL-6 Protein Expression: 7.10
  IL-10 Protein Expression: 4.20
  IL-1β Protein Expression: 14.24
  IL-8 Protein Expression: 130.61
  TNF-α Protein Expression: 1437.12
[8]; LPS + AUY922, LPS alone 41.18
  IL-10 Protein Expression: 2.95
[8]; LPS + AUY922, LPS alone 156.51
  IL-6 Protein Expression: 6.80
[8]; LPS + AUY922, LPS alone 775.64
  IL-1β Protein Expression: 14.57
[8]; LPS + AUY922, LPS alone 839.99
  IL-8 Protein Expression: 117.87
[8]; LPS + AUY922, LPS alone 4391.73
  TNF-α Protein Expression: 1587.49
[9]; AUY922 alone
  IL-1β Gene Expression (Fold): 0.9 Fold
  IL-6 Gene Expression (Fold): 1.2 Fold
  IL-8 Gene Expression (Fold): 1.0 Fold
  IL-10 Gene Expression (Fold): 30.2 Fold
  TNF-α Gene Expression (Fold): 0.8 Fold
[9]; LPS + AUY922, LPS alone 7.1
  TNF-α Gene Expression (Fold): 6.2 Fold
[9]; LPS + AUY922, LPS alone 42.5
  IL-6 Gene Expression (Fold): 3.25 Fold
[9]; LPS + AUY922, LPS alone 235.5
  IL-8 Gene Expression (Fold): 795.5 Fold
[9]; LPS + AUY922, LPS alone 350.4
  IL-10 Gene Expression (Fold): 200.1 Fold
[9]; LPS + AUY922, LPS alone 1950
  IL-1β Gene Expression (Fold): 20 Fold
[10]; SS mice
  inflammation in in vivo model system for SCD: significant decrease in inflammation
  plasma levels of Il-1-Beta: reduces plasma levels
  plasma levels of TNF-alpha: reduces plasma levels
[10]; mice with SCD
  LPS-induced Il-6 response: ablates the profound LPS-induced Il-6 response
[10]; mice with SCD, PBS, AUY922, LPS or LPS+AUY
  endothelial cell activation (sVCAM): blocks endothelial cell activation
[10]; mice, AUY922 25 mg/Kg B.W. daily for four days, with or without LPS 0.1 μg/g B.W.
  HSP70/GAPDH pharmacodynamic response: meets pharmacodynamic requirements

## CC(C)c1cc(-c2n[nH]c(=O)n2-c2ccc3c(ccn3C)c2)c(O)cc1O [Ganetespib]
[11]
  cardiac or liver toxicity: no evidence of cardiac or liver toxicity
[12]
  Hsp70 expression: induces the overexpression of Hsp70

## C=CCNc1c(O)cc2c(O)c1C[C@@H](C)C[C@H](OC)[C@H](O)[C@@H](C)/C=C(\C)[C@H](OC(N)=O)[C@@H](OC)/C=C\C=C(/C)C(=O)N2.Cl [IPI-504, Retaspimycin hydrochloride]
[6]
  water solubility: water-soluble
[7]
  bioavailability: excellent bioavailability
